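Values below derive from 48-hour exposures of cells grown in 96-well plates, with endpoints linearly interpolated between the two concentrations bracketing the appropriate inhibition level. GI50 marks 50% less growth. TGI marks complete inhibition of growth.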
How the values were obtained:
Assay in all cases: NCI tumour cell line growth inhibition, 48 h
PC-3 prostate = tested on: PC-3 prostate
HCT-15 colon = tested on: HCT-15 colon
MDA-MB-231 breast = tested on: MDA-MB-231 breast
UO-31 renal = tested on: UO-31 renal
T-47D breast = tested on: T-47D breast
SF-268 CNS = tested on: SF-268 CNS
HL-60(TB) leukemia = tested on: HL-60(TB) leukemia
HS 578T breast = tested on: HS 578T breast

Row | Compound | GI50 (PC-3 prostate) [µM] | TGI (PC-3 prostate) [µM] | GI50 (HCT-15 colon) [µM] | TGI (HCT-15 colon) [µM] | GI50 (MDA-MB-231 breast) [µM] | TGI (MDA-MB-231 breast) [µM] | GI50 (UO-31 renal) [µM] | TGI (UO-31 renal) [µM] | GI50 (T-47D breast) [µM] | TGI (T-47D breast) [µM] | GI50 (SF-268 CNS) [µM] | TGI (SF-268 CNS) [µM] | GI50 (HL-60(TB) leukemia) [µM] | TGI (HL-60(TB) leukemia) [µM] | GI50 (HS 578T breast) [µM] | TGI (HS 578T breast) [µM]
1 | Nc1nc2ccc3[nH]ncc3c2c2c1CCCC2 | 2.33 | 10.1 | 1.88 | 7.22 | 2.74 | 8.45 | 2.13 | 10.5 | 2.55 | 11.7 | 1.88 | 6.18 | 2.31 | 5.72 | 1.95 | 6.8
2 | CC(=O)OCc1ccc(O)c(C=O)c1 | – | > 100 | – | > 100 | – | > 100 | – | > 100 | – | > 100 | – | > 100 | – | > 100 | – | > 100
3 | COc1cc(-c2csc(NC(=O)Nc3cc(C(F)(F)F)cc(C(F)(F)F)c3)n2)cc(OC)c1OC | 1 | 7.55 | 2.51 | 10.9 | 1.59 | 3.92 | 2.85 | 12.1 | 1.93 | 9.65 | 3.64 | 15.7 | 2.43 | 6.89 | 2.24 | 6.9
4 | COc1c2c(c(CC=C(C)C)c3oc(=O)c(-c4ccc(O)cc4)c(O)c13)OC(C)(C)C=C2 | – | > 100 | – | 60.7 | – | 65 | – | > 100 | – | > 100 | – | 41 | – | 51 | – | > 100
5 | CC1(C)CCC[C@]2(C)c3cc(O)ccc3CC[C@@H]12 | 15.8 | 30.2 | 17.1 | 35.2 | 16.2 | 30.4 | 19.9 | 40.2 | – | – | 16.4 | 33.4 | 16 | 48.5 | 15.6 | 31.3
6 | N#C/C(=C\Nc1ccccn1)C(=O)c1ccco1 | – | > 100 | – | > 100 | – | > 100 | – | > 100 | – | – | – | > 100 | – | > 100 | – | > 100
7 | Clc1ccc(C(c2ccc(Cl)cc2)N2CCNCC2)cc1 | – | 7.15 | – | 8.79 | – | 4.4 | – | 4.4 | – | 5.25 | – | 19.7 | – | 4.57 | – | 7.89
8 | CC(=O)C1COC(O)C1C (stereo not drawn) | – | 55.5 | – | 44.4 | – | 68 | – | 34.9 | – | > 100 | – | 49.9 | – | 39.7 | – | 68.8
9 | O=C1C(Cl)=C(Nc2cccc(O)c2)C(=O)N1Cc1ccc(Cl)cc1 | 3.45 | 86.9 | – | – | 1.1 | 5.64 | 10.3 | > 100 | 10.7 | 54 | 4.26 | 18.6 | 0.993 | 11 | 8.51 | > 100
10 | O=c1oc(-c2ccccc2)cc2cccc(O)c12 | 40.6 | > 100 | 19.6 | > 100 | 29.2 | > 85.7 | 72 | > 100 | 13.6 | > 100 | 30.1 | > 89.9 | 63.5 | > 100 | 23.8 | 54.7
11 | CN1C(=O)C(=Cc2cn(Cc3ccccc3)c3ccccc23)C(=O)N(C)C1=O | 27 | > 100 | > 95.6 | > 100 | 54.1 | > 100 | > 38.8 | > 81.4 | 3.91 | > 75.3 | > 86.6 | > 100 | > 43.4 | > 100 | 17.8 | > 81.5
12 | C[C@]1(C(=O)O)N[C@H](C(=O)O)CS1 | > 1000 | > 1000 | > 1000 | > 1000 | > 1000 | > 1000 | > 1000 | > 1000 | > 1000 | > 1000 | > 1000 | > 1000 | – | – | – | –
13 | Oc1ccc2ccccc2c1C1NN=C(c2ccccc2)S1 (stereo not drawn) | 0.645 | > 100 | 0.399 | > 50.8 | 0.621 | 35.7 | 0.409 | > 20.4 | 0.525 | 33.5 | 0.418 | 29.1 | 0.353 | 4.13 | 2.41 | 44.4
14 | COc1ccc([I+]c2ccccc2)cc1 | 9.07 | > 100 | 42.1 | > 100 | > 78.2 | > 100 | 26.8 | > 100 | 9.22 | > 100 | 6.3 | > 100 | 5.22 | > 95.1 | 15.9 | > 100
15 | CC1(C)N=C(N)N=C(N)N1c1ccc(CCc2ccc(Cl)cc2S(=O)(=O)F)c(Cl)c1 | 6.62 | > 100 | 92.8 | > 100 | 10.3 | 67.5 | > 100 | > 100 | 17 | 45.2 | 4.21 | 53.5 | 13 | 48.1 | 11.1 | 41.3
16 | COc1ccc2c3c(c4ccccc4cc13)C(=O)N(CCN(C)CCN)C2=O | 0.338 | 1.93 | 0.0453 | 1.01 | 0.518 | 1.94 | 0.065 | 1.35 | 0.0877 | 12.6 | 0.106 | 1.49 | 0.0272 | 0.361 | 1.19 | 3.67
17 | O=C1NC(=O)C(c2ccc(Cl)cc2)=C1Nc1ccc(Cl)c(C(=O)O)c1 | > 25 | > 25 | > 25 | > 25 | > 25 | > 25 | > 25 | > 25 | > 25 | > 25 | > 25 | > 25 | > 25 | > 25 | > 25 | > 25

Source: PubChem BioAssay (NCI)
